The data set can be described thus: In vitro release study of EVE-PLGA microsphere (sample-and-separate method). The format is physicochemical. To be noted: during in vitro release study, release medium pH 7.4, 37° C. On the procedure:
The in vitro release study was carried out by a sample-and-separate method. Briefly, 20 mg of microsphere sample (n=3) was taken in a 100 mL flask and dispersed in 50 mL of release medium (0.5% Tween 20 and 0.1% sodium azide in phosphate buffered saline (PBS) at pH 7.4). The flasks were placed in an orbital agitating incubator at 37° C. and shaken at 100 rpm. At certain time points (E10PA53 at 1, 3, 7, 14, 21, 28, 35, 42, 49, 56 days and E10PE77 at 1, 3, 7, 14, 21, 28, 35, 42, 49, 56, 63, 70, 77, 84, 91 days), all medium was collected and filtered on filter paper. The filtered pellet was freeze-dried for 24 h and dissolved in acetonitrile. The content of the unreleased EVE was then analyzed by HPLC as described above. Since EVE was known to be degradable in aqueous solution as a free form in a time-dependent manner, the EVE content was analyzed in the microsphere residue.
The microspheres were also prepared using a membrane with a pore size of 50 μm, which produced microspheres having a diameter size larger than 75 μm. To analyze the release behavior of EVE from the microspheres, an in vitro release study was performed by a sample-and-separate method at physiological conditions. […] The content of EVE was determined in the remaining microsphere after collecting whole samples at certain time points to avoid degradation-related loss of EVE in an aqueous environment.

As for `CO[C@H]1C[C@@H]2CC[C@@H](C)[C@@](O)(O2)C(=O)C(=O)N2CCCC[C@H]2C(=O)O[C@H]([C@H](C)C[C@@H]2CC[C@@H](OCCO)[C@H](OC)C2)CC(=O)[C@H](C)/C=C(\C)[C@@H](O)[C@@H](OC)C(=O)[C@H](C)C[C@H](C)/C=C/C=C/C=C/1C` [EVE, everolimus], the “stability of EVE in the microsphere” value is reported as “no change in the stability”.

Values taken from patent publication US12396951B2, “Prevention of local tumor recurrence following surgery using sustainedand/or delayed release of medicaments contained in micro-particles” (UPEXMED CO. LTD., priority 2016, dated 2025).
